Results published in patent publication US12528761B2, “Thyromimetics” (Autobahn Therapeutics, Inc., priority 2020, dated 2026).
Like-named read-outs stand apart in the source and are kept apart here.

How the values were obtained:
TRα = target: T1, TRα (Homo sapiens, UniProt P10827); assay: TR reporter-gene assay (Gal4 DBD hybrid, luciferase), TRα; format: cell-based
T1 construct: expressed in transfected cells; host or cells: HEK293
T1 sequence (P10827 1-410 isoform P10827-2): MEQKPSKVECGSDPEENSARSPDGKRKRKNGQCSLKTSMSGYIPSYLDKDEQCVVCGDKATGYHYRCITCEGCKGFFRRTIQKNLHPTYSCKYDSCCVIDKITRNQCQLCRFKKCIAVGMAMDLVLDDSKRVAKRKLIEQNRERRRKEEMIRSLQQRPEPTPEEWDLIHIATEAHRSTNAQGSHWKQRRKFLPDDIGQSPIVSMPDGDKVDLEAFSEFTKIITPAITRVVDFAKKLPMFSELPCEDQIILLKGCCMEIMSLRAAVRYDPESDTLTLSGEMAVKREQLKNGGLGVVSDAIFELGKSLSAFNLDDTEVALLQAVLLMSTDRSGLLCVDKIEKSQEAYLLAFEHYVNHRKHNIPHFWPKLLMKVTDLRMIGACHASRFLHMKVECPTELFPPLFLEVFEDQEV
Description: (§1) Compounds were tested for thyroid-hormone receptor activity using TR reporter-gene assays. Reporter cells used in the assays express a TR-receptor hybrid (either TRα or TRβ) in which the native N-terminal DNA binding domain (DBD) has been replaced with that of the yeast Gal4 DBD. The reporter gene, firefly luciferase, is functionally linked to the Gal4 upstream activation sequence (UAS). Both cell lines were derived from human embryonic kidney (HEK293).
(§2) Step 1: A suspension of reporter cells was prepared in cell recovery medium containing 10% charcoal-stripped FBS, and dispensed into assay plates. The plates were pre-incubated for 6 hours in a cell culture incubator (37° C./5% CO2/85% humidity).
(§3) These intermediate stocks were subsequently diluted directly into compound screening medium containing 10% charcoal-stripped FBS to generate “2×-concentration” treatment media (containing 0.2, 0.4 or 0.8% DMSO).
(§4) Step 3: At the end of the pre-incubation period, culture media were discarded from the assay plates, and all wells received 100 μl of compound screening medium. 100 μl of each of the previously prepared “2×-concentration” treatment media were dispensed into duplicate assay wells, thereby achieving the desired final treatment concentrations. The final concentration of DMSO in all assay wells was 0.1, 0.2 or 0.4%. Assay plates were incubated for 24 hr in a cell culture incubator (37° C./5% CO2/85% humidity).
(§5) Step 4: At the 24 h assay endpoint, treatment media were discarded and 100 µl/well of luciferase detection reagent was added. Relative luminometer units (RLUs) were quantified from each assay well.

TRβ = target: T2, TRβ (Homo sapiens, UniProt P10828); assay: TR reporter-gene assay (Gal4 DBD hybrid, luciferase), TRβ; format: cell-based; conditions: for T3-SI (selectivity index, EC50 (TRα)/EC50 (TRβ)): class symbols
T2 construct: expressed in transfected cells; host or cells: HEK293
T2 sequence (P10828 217-461 limits assumed): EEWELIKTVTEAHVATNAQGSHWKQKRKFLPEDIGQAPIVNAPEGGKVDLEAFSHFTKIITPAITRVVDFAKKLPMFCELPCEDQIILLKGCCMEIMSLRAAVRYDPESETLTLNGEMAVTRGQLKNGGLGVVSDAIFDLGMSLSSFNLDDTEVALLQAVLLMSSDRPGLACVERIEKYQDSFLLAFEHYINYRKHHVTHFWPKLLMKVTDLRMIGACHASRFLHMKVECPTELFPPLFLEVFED
Description: as §1, §2, §3, §4, §5

[1] = HEK293-derived reporter cells, 24 hr treatment, read-out: TRα EC50
[2] = HEK293-derived reporter cells, 24 hr treatment, read-out: TRβ EC50

Row | SMILES | EC50 (TRα; [1]) | EC50 (TRβ; [2]) | T3-SI (selectivity index, EC50 (TRα)/EC50 (TRβ)) (TRβ) | EC50 (TRα) | EC50 (TRβ)
1 | Cc1c(F)c(CNCC(=O)O)cc(Cl)c1Cc1ccc(O)c(C(C)C)c1 [Compound 221, (5-chloro-2-fluoro-4-(4-hydroxy-3-isopropylbenzyl)-3-methylbenzyl)glycine] | 100 to 1000 nM | 100 to 1000 nM | ++ (3× < T3-SI ≤ 30×) | – | –
2 | CC(C)c1cc(Cc2c(Cl)cc(NCCC(=O)O)cc2Cl)ccc1O [Compound 103, 3-((3,5-dichloro-4-(4-hydroxy-3-isopropylbenzyl)phenyl)amino)propanoic acid] | 10 to 100 nM | 10 to 100 nM | ++ (3× < T3-SI ≤ 30×) | – | –
3 | CC(C)c1cc(Cc2c(Cl)cc(/C=C/C(=O)O)cc2Cl)ccc1O [Compound 86, (E)-3-(3,5-dichloro-4-(4-hydroxy-3-isopropylbenzyl)phenyl)acrylic acid] | 10 to 100 nM | 10 to 100 nM | + (T3-SI ≤ 3×) | – | –
4 | Cc1cc(CC(=O)O)cc(C)c1Cc1ccc(O)c(C(C)c2ccc(F)cc2)c1 (stereo not drawn) [Compound 2, 2-(4-(3-(1-(4-fluorophenyl)ethyl)-4-hydroxybenzyl)-3,5-dimethylphenyl)acetic acid] | 100 to 1000 nM | 10 to 100 nM | ++ (3× < T3-SI ≤ 30×) | – | –
5 | CC(C)c1cc(Cc2c(Cl)cc(CNCC(=O)O)c(F)c2Cl)ccc1O [Compound 152, (3,5-dichloro-2-fluoro-4-(4-hydroxy-3-isopropylbenzyl)benzyl)glycine] | 100 to 1000 nM | 100 to 1000 nM | ++ (3× < T3-SI ≤ 30×) | – | –
6 | CC(C)c1cc(Cc2c(Cl)cc(CC(N)C(=O)O)cc2Cl)ccc1O (stereo not drawn) [Compound 143, 2-amino-3-(3,5-dichloro-4-(4-hydroxy-3-isopropylbenzyl)phenyl)propanoic acid] | 10 to 100 nM | 10 to 100 nM | + (T3-SI ≤ 3×) | – | –
7 | CC(C)c1c(O)ccc(Cc2c(Cl)cc(CC(=O)O)cc2Cl)c1F [Compound 32, 2-(3,5-dichloro-4-(2-fluoro-4-hydroxy-3-isopropylbenzyl)phenyl)acetic acid] | – | – | ++ (3× < T3-SI ≤ 30×) | 10 to 100 nM | < 10 nM
8 | CC(C)c1cc(Cc2c(Cl)cc(S(=O)(=O)CC(=O)O)cc2Cl)ccc1O [Compound 93, 2-((3,5-dichloro-4-(4-hydroxy-3-isopropylbenzyl)phenyl)sulfonyl)acetic acid] | > 1000 nM | > 1000 nM | ++ (3× < T3-SI ≤ 30×) | – | –
9 | CC(Oc1cc(Cl)c(Cc2ccc(O)c(C(C)C)c2F)c(Cl)c1)C(=O)O (stereo not drawn) [Compound 58, 2-(3,5-dichloro-4-(2-fluoro-4-hydroxy-3-isopropylbenzyl)phenoxy)propanoic acid] | 100 to 1000 nM | 10 to 100 nM | ++ (3× < T3-SI ≤ 30×) | – | –
10 | Cc1cc([S+]([O-])CC(=O)O)cc(Cl)c1Cc1ccc(O)c(C(C)C)c1 (stereo not drawn) [Compound 244, 2-((3-chloro-4-(4-hydroxy-3-isopropylbenzyl)-5-methylphenyl)sulfinyl)acetic acid] | > 1000 nM | > 1000 nM | ++ (3× < T3-SI ≤ 30×) | – | –
11 | CC(C)c1cc(Cc2c(Cl)cc(CCC(=O)O)cc2Cl)ccc1O [Compound 11, 3-(3,5-dichloro-4-(4-hydroxy-3-isopropylbenzyl)phenyl)propanoic acid] | 10 to 100 nM | 10 to 100 nM | ++ (3× < T3-SI ≤ 30×) | – | –
12 | CONC(=O)Cc1cc(Cl)c(Cc2ccc(O)c(C(C)C)c2F)c(Cl)c1 [Compound 104, 2-(3,5-dichloro-4-(2-fluoro-4-hydroxy-3-isopropylbenzyl)phenyl)-N-methoxyacetamide] | > 1000 nM | 100 to 1000 nM | +++ (T3-SI > 30×) | – | –
13 | CC(C)c1c(O)ccc(Cc2c(Cl)cc(CCC(=O)O)cc2Cl)c1F [Compound 40, 3-(3,5-dichloro-4-(2-fluoro-4-hydroxy-3-isopropylbenzyl)phenyl)propanoic acid] | < 10 nM | < 10 nM | ++ (3× < T3-SI ≤ 30×) | – | –
14 | Cc1cc(CSCC(=O)O)c(F)c(Cl)c1Cc1ccc(O)c(C(C)C)c1 [Compound 224, 2-((3-chloro-2-fluoro-4-(4-hydroxy-3-isopropylbenzyl)-5-methylbenzyl)thio)acetic acid] | 100 to 1000 nM | 100 to 1000 nM | ++ (3× < T3-SI ≤ 30×) | – | –
15 | CC(C)c1cc(Cc2c(Cl)cc(SCC(=O)O)c(F)c2Cl)ccc1O [Compound 204, 2-((3,5-dichloro-2-fluoro-4-(4-hydroxy-3-isopropylbenzyl)phenyl)thio)acetic acid] | 10 to 100 nM | 10 to 100 nM | ++ (3× < T3-SI ≤ 30×) | – | –
16 | CC(C)c1cc(Cc2c(Cl)cc(CC(=O)O)cc2Cl)ccc1O [Compound 6, 2-(3,5-dichloro-4-(4-hydroxy-3-isopropylbenzyl)phenyl)acetic acid] | 100 to 1000 nM | 100 to 1000 nM | ++ (3× < T3-SI ≤ 30×) | – | –
17 | O=C(O)CCc1cc(Cl)c(Cc2ccc(O)c(-c3cc(OC(F)F)ccc3F)c2F)c(Cl)c1 [Compound 44, 3-(3,5-dichloro-4-((5′-(difluoromethoxy)-2,2′-difluoro-6-hydroxy-[1,1′-biphenyl]-3-yl)methyl)phenyl)propanoic acid] | 10 to 100 nM | < 10 nM | ++ (3× < T3-SI ≤ 30×) | – | –
18 | CC(C)c1c(O)ccc(Cc2c(Cl)cc(CCC(=O)O)c(F)c2Cl)c1F [Compound 71, 3-(3,5-dichloro-2-fluoro-4-(2-fluoro-4-hydroxy-3-isopropylbenzyl)phenyl)propanoic acid] | 10 to 100 nM | 10 to 100 nM | ++ (3× < T3-SI ≤ 30×) | – | –
19 | CC(C)c1c(O)ccc(Cc2c(Cl)cc(C(=O)O)cc2Cl)c1F [Compound 61, 3,5-dichloro-4-(2-fluoro-4-hydroxy-3-isopropylbenzyl)benzoic acid] | > 1000 nM | > 1000 nM | ++ (3× < T3-SI ≤ 30×) | – | –
20 | CC(C)c1cc(Cc2c(Cl)cc(N(C)CC(=O)O)cc2Cl)ccc1O [Compound 148, N-(3,5-dichloro-4-(4-hydroxy-3-isopropylbenzyl)phenyl)-N-methylglycine] | > 1000 nM | > 1000 nM | + (T3-SI ≤ 3×) | – | –
21 | CC(C)c1cc(Cc2c(Cl)cc(CCC(=O)O)c(F)c2Cl)ccc1O [Compound 65, 3-(3,5-dichloro-2-fluoro-4-(4-hydroxy-3-isopropylbenzyl)phenyl)propanoic acid] | 10 to 100 nM | 10 to 100 nM | ++ (3× < T3-SI ≤ 30×) | – | –
22 | Cc1cc(CNCC(=O)O)cc(Cl)c1Cc1ccc(O)c(C(C)C)c1 [Compound 251, (3-chloro-4-(4-hydroxy-3-isopropylbenzyl)-5-methylbenzyl)glycine] | 100 to 1000 nM | > 1000 nM | + (T3-SI ≤ 3×) | – | –
23 | CC(C)c1c(O)ccc(Cc2c(Cl)cc(CSCC(=O)O)cc2Cl)c1F [Compound 200, 2-((3,5-dichloro-4-(2-fluoro-4-hydroxy-3-isopropylbenzyl)benzyl)thio)acetic acid] | < 10 nM | < 10 nM | ++ (3× < T3-SI ≤ 30×) | – | –
24 | CCOC(=O)/C(=C\c1cc(Cl)c(Cc2ccc(O)c(C(C)C)c2)c(Cl)c1)C(=O)O [Compound 90, 3-(3,5-dichloro-4-(4-hydroxy-3-isopropylbenzyl)phenyl)-2-(ethoxycarbonyl)acrylic acid] | > 1000 nM | > 1000 nM | ++ (3× < T3-SI ≤ 30×) | – | –
25 | CONC(=O)CCc1cc(Cl)c(Cc2ccc(O)c(C(C)C)c2F)c(Cl)c1 [Compound 106, 3-(3,5-dichloro-4-(2-fluoro-4-hydroxy-3-isopropylbenzyl)phenyl)-N-methoxypropanamide] | 10 to 100 nM | 10 to 100 nM | ++ (3× < T3-SI ≤ 30×) | – | –
